In patent US7829567B2, “Imino-indeno[1,2-c] quinoline derivatives, their preparation processes, and pharmaceutical compositions comprising the same” (Kaohsiung Medical University, priority 2007, dated 2010) one finds IC50 data, which are given here for 20 compounds.

What all share (format): cell-based
For assay [1], the system named is hepatocellular carcinoma (SKHep1). The assay is described as follows: In vitro anticancer assay (MTT), SKHep1. The note with it: 48 hrs, mean ± spread, read-out: Anti-proliferative evaluation IC50, SKHep1. The procedure: (§1) The resultant tetrazolium salt was then dissolved by the addition of dimethyl sulfoxide. Color was measured spectrophotometrically in a microtiter plate reader at 570 nm and used as a relative measure of viable cell number. The number of viable cells after treatment was compared to solvent and untreated control cells and used to determine the percent of control growth as (Abtreated/Abcontrol)×100, where Ab represents the mean absorbance (n=3). […] D. Heo et al. […] (+)-camptothecin (CPT) and doxorubicin hydrochloride (Dox) were used for comparison with the compounds according to this invention.

The test system of assay [2] is human cervical epithelioid carcinoma (HeLa). The assay is described as follows: In vitro anticancer assay (MTT), HeLa. The note with it: HeLa cells, 48 hrs, mean ± spread, read-out: Anti-proliferative evaluation IC50, HeLa. On the procedure: as §1
The test system of assay [3] is esophageal carcinoma (CE81T). In words: In vitro anticancer assay (MTT), CE81T. The note with it: CE81T cells, 48 hrs, mean ± spread, read-out: Anti-proliferative evaluation IC50, CE81T. On the procedure: as §1
Assay [4] deals with human renal clear cell carcinoma. In words: In vitro anticancer assay (MTT), RCC 768-O. The following applies: RCC 768-O cells, 48 hrs, mean ± spread, read-out: Anti-proliferative evaluation IC50, RCC 768-O. The procedure: as §1
The subject of assay [5] is human stomach adenocarcinoma (AGS). In words: In vitro anticancer assay (MTT), AGS. The following applies: AGS cells, 48 hrs, mean ± spread, read-out: Anti-proliferative evaluation IC50, AGS. The procedure: as §1
Assay [6] deals with oral squamous cell carcinoma (SAS). The assay is described as follows: In vitro anticancer assay (MTT), SAS. The note with it: SAS cells, 48 hrs, mean ± spread, read-out: Anti-proliferative evaluation IC50, SAS. On the procedure: as §1
Where [7] appears, read: Homo sapiens, SK-HEP1, SKHep1 cells.

Like-named read-outs stand apart in the source and are kept apart here. Bounds are passed on as bounds.

Take `COc1ccc2c(c1)C(=O)c1c-2c(N2CCN(C(=O)CCNCCNCCN)CC2)nc2ccccc12` [Compound 5ddd]: the IC50 is above 30 µM in assay [1] (SKHep1 cells); above 30 µM in assay [2]; above 30 µM in assay [3]; above 30 µM in assay [4]; 10.8 ± 0.2 µM in assay [5]; above 30 µM in assay [6].

As for `COc1ccc2c(c1)C(=O)c1c-2c(N2CCNCC2)nc2ccc(F)cc12` [Compound 5ee, 2-Fluoro-9-methoxy-6-(piperazin-1-yl)-11H-indeno[1,2-c]quinolin-11-one], the IC50 in assay [1] (setting [7]) is 16.5 ± 5.1 µM; in assay [2] (Homo sapiens) it was above 30 µM; in assay [3], 0.9 ± 0.6 µM; in assay [4] (Homo sapiens), 4.7 ± 3 µM; in assay [5] (Homo sapiens) it was 6.5 ± 0.9 µM; in assay [6] it was 6.9 ± 0.5 µM.

Consider `COc1ccc2c(c1)C(=O)c1c-2c(N2CCN(C(=O)CCNCCNCCO)CC2)nc2ccccc12` [Compound 5eee], for which the IC50 was 11.2 ± 0.9 µM in assay [1] (SKHep1 cells); 10.6 ± 1.2 µM in assay [2]; above 30 µM in assay [3]; 15 ± 3.5 µM in assay [4]; 16 ± 0.9 µM in assay [5]; above 30 µM in assay [6].

`COc1ccc2c(c1OC)C(=O)c1c-2c(N2CCNCC2)nc2ccc(Cl)cc12` [Compound 5ff, 2-Chloro-9,10-dimethoxy-6-(piperazin-1-yl)-11H-indeno[1,2-c]quinolin-11-one]: the IC50 is 4.7 ± 2.2 µM in assay [1] (setting [7]); 4.6 ± 0.7 µM in assay [2] (Homo sapiens); above 30 µM in assay [3]; 6.9 ± 0.3 µM in assay [4] (Homo sapiens); 9.5 ± 2.7 µM in assay [5] (Homo sapiens); 11 ± 3.2 µM in assay [6].

Take `COc1ccc2c(c1)C(=O)c1c-2c(N2CCN(C(=O)CCNCCCN(C)CCCN)CC2)nc2ccccc12` [Compound 5fff]: the half-maximal inhibitory concentration (IC50) in assay [1] (SKHep1 cells) is 23.5 ± 1.4 µM; in assay [2] it was above 30 µM; in assay [3], above 30 µM; in assay [4], above 30 µM; in assay [5], 10.8 ± 1.9 µM; in assay [6], above 30 µM.

Take `COc1ccc2c(c1)C(=O)c1c-2c(N2CCN(C(=O)CCN3CCNCC3)CC2)nc2ccccc12` [Compound 5ggg]: the half-inhibitory concentration (IC50) stood at 4.9 ± 1.1 µM in assay [1] (SKHep1 cells); 4.7 ± 1.4 µM in assay [2]; 7.2 ± 1.5 µM in assay [3]; 1.5 ± 1.3 µM in assay [4]; 5.5 ± 0.5 µM in assay [5]; 7.7 ± 0.9 µM in assay [6].

For the compound `COc1ccc2c(c1)C(=O)c1c-2c(N2CCN(C(=O)CCN3CCOCC3)CC2)nc2ccccc12` [Compound 5hhh], the IC50 in assay [1] (SKHep1 cells) is 15 ± 5.9 µM; in assay [2] it was 14.3 ± 4.4 µM; in assay [3], above 30 µM; in assay [4], above 30 µM; in assay [5], 12 ± 1.3 µM; in assay [6], above 30 µM.

With `COc1ccc2c(c1)C(=O)c1c-2c(NCCCN(C)C)nc2ccccc12` [Compound 5i, 6-[3-(Dimethylamino)propylamino]-9-methoxy-11H-indeno[1,2-c]quinolin-11-one], the 50% inhibitory concentration (IC50) in assay [1] (setting [7]) is 11.5 ± 5.4 µM; in assay [2] (Homo sapiens) it was 2 ± 0.4 µM; in assay [3], 7.1 ± 0.3 µM; in assay [4] (Homo sapiens), above 30 µM; in assay [5] (Homo sapiens), 14.3 ± 0.5 µM; in assay [6] it was 5.5 ± 0.5 µM.

As for `COc1ccc2c(c1)C(=O)c1c-2c(N2CCN(C(=O)CCNCCN3CCNCC3)CC2)nc2ccccc12` [Compound 5iii], the IC50 in assay [1] (SKHep1 cells) is 11.5 ± 5.6 µM; in assay [2] it was above 30 µM; in assay [3], above 30 µM; in assay [4], above 30 µM; in assay [5], 13.4 ± 1.3 µM; in assay [6], above 30 µM.

For `COc1ccc2c(c1)C(=O)c1c-2c(N2CCN(C(=O)CCCN(C)C)CC2)nc2ccccc12` [Compound 5jjj], the IC50 is 5.5 ± 0.8 µM in assay [1] (SKHep1 cells); 4.9 ± 1.7 µM in assay [2]; above 30 µM in assay [3]; 5.3 ± 0.5 µM in assay [4]; 5.4 ± 0.6 µM in assay [5]; 8 ± 0.8 µM in assay [6].

Take `CNCC(=O)N1CCN(c2nc3ccccc3c3c2-c2ccc(OC)cc2C3=O)CC1` [Compound 5kk]: the IC50 in assay [1] (SKHep1 cells) worked out at 4.8 ± 2.1 µM; in assay [2], 2 ± 0.6 µM; in assay [3] it was 2.3 ± 1.3 µM; in assay [4], 6.2 ± 1.9 µM; in assay [5] it was 7.2 ± 1.5 µM; in assay [6], 7.4 ± 0.9 µM.

Consider `COc1ccc2c(c1)C(=O)c1c-2c(N2CCN(CC3CO3)CC2)nc2ccccc12` (stereo not drawn) [Compound 5kkk, 9-methoxy-6-[4-(oxiran-2-ylmethyl)piperazin-1-yl]-11H-indeno[1,2-c]quinolin-11-one], for which the IC50 was above 30 µM in assay [1] (setting [7]); 10.7 ± 1.2 µM in assay [2] (Homo sapiens); 0.6 µM in assay [3]; 19.1 ± 3.1 µM in assay [4] (Homo sapiens); 21.4 ± 10.1 µM in assay [5] (Homo sapiens); above 30 µM in assay [6].

Take `COc1ccc2c(c1)C(=O)c1c-2c(N2CCN(C(=O)CN(C)C)CC2)nc2ccccc12` [Compound 5ll]: the IC50 was 19.2 ± 5.4 µM in assay [1] (SKHep1 cells); 11.8 ± 2.8 µM in assay [2]; above 30 µM in assay [3]; 14.1 ± 3.4 µM in assay [4]; 8.7 ± 1.2 µM in assay [5]; above 30 µM in assay [6].

With `CNCC(O)CN1CCN(c2nc3ccccc3c3c2-c2ccc(OC)cc2C3=O)CC1` (stereo not drawn) [Compound 5lll, 6-{4-[2-Hydroxy-3-(methylamino)propyl]piperazin-1-yl}-9-methoxy-11H-indeno[1,2-c]quinolin-11-one], the 50% inhibitory concentration (IC50) in assay [1] (setting [7]) was 3.4 ± 1.2 µM; in assay [2] (Homo sapiens), 4.6 ± 1 µM; in assay [3] it was 0.9 ± 0.3 µM; in assay [4] (Homo sapiens), 6.4 ± 0.2 µM; in assay [5] (Homo sapiens) it was 9.6 ± 3.8 µM; in assay [6] it was 7.4 ± 0.7 µM.

On to `COc1ccc2c(c1)C(=O)c1c-2c(N2CCN(C(=O)CNCCN)CC2)nc2ccccc12` [Compound 5mm], for which the IC50 in assay [1] (SKHep1 cells) is 14.9 ± 3.6 µM; in assay [2] it was 8.7 ± 1.8 µM; in assay [3] it was above 30 µM; in assay [4] it was 10.5 ± 1 µM; in assay [5], 11.2 ± 1.5 µM; in assay [6], above 30 µM.

Take `COc1ccc2c(c1)C(=O)c1c-2c(N2CCN(CC(O)CN(C)C)CC2)nc2ccccc12` (stereo not drawn) [Compound 5mmm]: the half-maximal inhibitory concentration (IC50) in assay [1] (SKHep1 cells) came out at 2.2 ± 0.8 µM; in assay [2], 2.5 ± 0.7 µM; in assay [3] it was 4.8 ± 4 µM; in assay [4], 6.8 ± 0.1 µM; in assay [5] it was 7.9 ± 3.8 µM; in assay [6], 6.9 ± 0.5 µM.

`COc1ccc2c(c1)C(=O)c1c-2c(N2CCN(C(=O)CNCCO)CC2)nc2ccccc12` [Compound 5nn]: the 50% inhibitory concentration (IC50) came out at 6.6 ± 0.9 µM in assay [1] (SKHep1 cells); 4.7 ± 2.3 µM in assay [2]; 9.2 ± 0.8 µM in assay [3]; 6.7 ± 0.5 µM in assay [4]; 6.5 ± 0.6 µM in assay [5]; 11.3 ± 0.3 µM in assay [6].

For `COc1ccc2c(c1)C(=O)c1c-2c(N2CCN(C(=O)CNCCN(C)C)CC2)nc2ccccc12` [Compound 5oo], the half-inhibitory concentration (IC50) is 16 ± 3.8 µM in assay [1] (SKHep1 cells); 8.2 ± 2.2 µM in assay [2]; above 30 µM in assay [3]; 9.4 ± 0.6 µM in assay [4]; 14.1 ± 2.3 µM in assay [5]; 19.5 ± 3.2 µM in assay [6].

In the case of `COc1ccc2c(c1)C(=O)c1c-2c(N2CCN(C(=O)CNCCCN(C)C)CC2)nc2ccccc12` [Compound 5pp], the half-inhibitory concentration (IC50) in assay [1] (SKHep1 cells) was 13.1 ± 2.7 µM; in assay [2], 10.8 ± 3 µM; in assay [3], above 30 µM; in assay [4], 10 ± 2.1 µM; in assay [5], 5.6 ± 2.2 µM; in assay [6], above 30 µM.

Take `COc1ccc(Nc2nc3ccccc3c3c2-c2ccc(OC)cc2C3=O)c(OC)c1` [Compound 5q]: the half-inhibitory concentration (IC50) in assay [1] (SKHep1 cells) was above 30 µM; in assay [2], above 30 µM; in assay [3], 22.7 ± 1.5 µM; in assay [4] it was above 30 µM; in assay [5], above 30 µM; in assay [6], above 30 µM.

As usually defined, the IC50 is the concentration that gives 50% inhibition.
